“Also recorded” adds a separate entry of the source.
How the values were obtained:
[1] = tested on: p21, p27, cyclin D1 and cyclin E; assay: steady-state levels of other cell cycle regulators in MCF7 cells; type: cell-based, human; conditions: 50 μM, 24 hr
Experimental: (A) Effect of 50 μM dysidiolide on the steady-state levels of Cdc25 A and C, and of other cell cycle regulators in MCF7 cells after a 24 hr treatment.

[2] = tested on: lung carcinoma and murine leukemia cell lines; conditions: cited from earlier work
[3] = tested on: TSU-Pr1, PC3 and DU145 human prostrate cancer cells; assay: apoptosis by FACS detection of fragmented DNA; type: cell-based; conditions: 24 hours
Experimental: (§1) Cells containing fragmented DNA content were detected as the M1 (subG1) region on DNA content plots.
Effects of dysidiolide at the cellular level. Dysidiolide was cytotoxic to several human tumor cell lines. […] (A) Human tumor cells were treated for 24 hours in the presence of various concentrations of dysidiolide or DMSO vehicle. Cells were analyzed by FACS and the percentage of cells bearing less than the 2 n DNA complement was determined. (B) Immunofluorescence micrographs of TSU-Pr1 human prostrate cancer cells untreated or treated for 6 hours with 2-50 μM dysidiolide.

[4] = tested on: TSU-Pr1, PC3, DU145 and MCF7 human cancer cell lines; assay: viability (Trypan blue exclusion) and FACS sub-G1 of four human cancer cell lines; type: cell-based
Experimental: Effect of dysidiolide on the viability of the human cancer cell lines (A) TSU-Pr1, (B) MCF7, (C) PC3, and (D) DU145. Cultures were untreated or treated with 2, 10 or 50 μM dysidiolide for 24 hr. All cultures received a final DMSO concentration of 0.25%. Cells were harvested by trypsinization and viability was determined by Trypan blue exclusion.
FACS analysis of (A) TSU-Pr1, (B) PC3, (C) DU145, and (D) MCF7, untreated or treated with 2, 10 or 50 μM dysidiolide for 24 hr. All cultures received a final DMSO concentration of 0.25%.
as §1
A 20 mM stock solution of dysidiolide was prepared in dimethylsulfoxide (DMSO) and a pilot experiment was carried out to measure the effects of the drug on the viability (Trypan blue exclusion) and flow cytometric parameters of four human cancer cell lines: the prostate lines TSU-Pr1, PC3 and DU145, and the breast line, MCF7. Cultures were treated with 0, 2, 10 and 50 μM dysidiolide for 24 hr. Dysidiolide was cytotoxic to the four lines as evidenced by the loss of Trypan blue exclusion capability and by the appearance of sub-G1 fraction on flow cytometric (FACS) analysis (FIGS. 3 and 4A-D). […] (At 50 μM dysidiolide, the level of cell death was too high in TSU-Pr1 cells to fit a valid histogram (FIG. 5A)). […]

Cdk4 = Cdk4 kinase activity on immunoprecipitates from treated MCF7 cells; type: cell-based, human; conditions: 50 μM, 24 hr
Experimental: (§2) Effect of a 24 hr treatment with 50 μM dysidiolide on the kinase activity of Cdk4, Cdk2 and Cdc2. Cdk were immunoprecipitated from MCF7 cell lysates obtained from cultures treated or not with dysidiolide for 24 hr. Histone H1 was used as substrate for Cdk2 and Cdc2, whereas GST-Rb was the substrate for Cdk4.
To further characterize the effects of dysidiolide on cell cycle control, experiments were conducted at the molecular level. As Cdc25s (A, B and C) are positive regulators of cyclin-dependent kinases (Cdk) (reviewed in Draetta and Eckstein, BBA 1332: M53-M63, 1997) inhibition of Cdc25 is expected to result in inhibition of Cdk activity. MCF7 cells were treated with 2 or 10 μM dysidiolide or with DMSO (controls) for 2 or 4 hr. Cell extracts were used to measure the steady-state levels of Cdc25 A and C, and Cdk activity. […] However, a decrease in the levels of Cdc25 C (but not on A) was clearly noticeable (FIG. 9B). In the next experiment MCF7 cells were treated for 24 hr with 50 μM dysidiolide or with DMSO (control) for 24 hr. […] On the other hand, at these more stringent conditions, inhibition of Cdk2, Cdk4 and Cdc2 protein kinase activities was observed (FIG. 10A and FIG. 10B).

TSU-Pr1 cells = assay: BrdU pulse-label FACS of TSU-Pr1 cells; type: cell-based, human; conditions: 3.33 μM, 24 hours
Experimental: TSU-Pr1 cells were treated for 24 hours with either DMSO or 3.33 μM dysidiolide. Cells were pulse-labeled for 30 min with bromodeoxyuridine (BrdU) and analyzed by FACS. The R@ window contains BRDU-positive, S-phase cells. Consistent with the proposed inhibitory effect of dysidiolide on the positive cell cycle regulator Cdc25. the drug inhibited the activity of cyclin-dependent kinases (Cdk). Cdk4, 6 and 2 were immunoprecipitated from DMSO- or drug-treated TSU-Pr1 cell cultures. Activity was examined in vitro kinase assays. The activity of the three Cdks was inhibited in drug-treated cells, as early as 3 hours in drug.

Cdk2 = Cdk2 kinase activity on immunoprecipitates from treated MCF7 cells; type: cell-based, human
Experimental: Effect of dysidiolide on the activity of Cdk2 and on the steady-state levels of Cdc25A and Cdc25C. MCF7 cells were treated for 2 or 4 hr with 0, 2 or 10 μM dysidiolide. A) The kinase activity of Cdk2 was assayed on immunoprecipitates using histone H1 as exogenous substrate. B) The steady-state levels of Cdc25 A and C were analyzed in total cell lysates with specific antibodies (Santa Cruz Biotechnology's sc097 and sc327 antibodies were used for detection of Cdc25 A and C, respectively).
as §2
To further characterize the effects of dysidiolide on cell cycle control, experiments were conducted at the molecular level. As Cdc25s (A, B and C) are positive regulators of cyclin-dependent kinases (Cdk) (reviewed in Draetta and Eckstein, BBA 1332: M53-M63, 1997) inhibition of Cdc25 is expected to result in inhibition of Cdk activity. MCF7 cells were treated with 2 or 10 μM dysidiolide or with DMSO (controls) for 2 or 4 hr. Cell extracts were used to measure the steady-state levels of Cdc25 A and C, and Cdk activity. […]

human tumor cell lines = assay: anchorage-dependent growth of human tumor cell lines; type: cell-based
Experimental: (B) Effect of dysidiolide on anchorage-dependent growth of human tumor cell lines. Cells were grown in multiwell plates and treated with either various drug concentrations or with dimethylsulfoxide (vehicle control). Cell number was determined and the inhibitory concentration to induce 50% growth inhibition (IC50) was determined. (C) Furthermore, dysidiolide inhibited the growth of immortalized human mammary epithelial cells transformed by either the oncogene ras, the receptor tyrosine kinase Neu, or both agents. Again, the IC50 for growth inhibition was in the low μM range (IC50 −3 μM dysidiolide).
In summary, the synthetic dysidiolide is an active drug in human tumor cell lines. It induces cytotoxicity, as detected by loss of Trypan blue exclusion and by the appearance of cells containing fragmented DNA via FACS analysis. […] Dysidiolide has the potential to be a cell cycle-targeted drug, which could be used alone or in combination with other treatments. In this regard, it may sensitize cells for DNA damaging treatments (i.e. act as a radiosensitizer). […] Cell lines derived from tumors of diverse origins were affected similarly.

For `C=C(C)CCC[C@@]1(C)CCC[C@H]2C1=CC[C@H](C)[C@]2(C)C[C@H](O)C1=CC(=O)O[C@@H]1O` (racemic) [dysidiolide], the “levels of p21, p27, cyclin D1 and cyclin E” value [1] is given as “reduced levels”, the “growth of lung carcinoma and murine leukemia cell lines” value [2] is given as “inhibits growth” and the apoptosis [3] is given as “massive apoptosis; also recorded: induced apoptotic cell death”. The “cytotoxicity (loss of Trypan blue exclusion, sub-G1 fraction)” value ([4]; 2, 10 and 50 μM, 24 hr) was “cytotoxic”, the growth arrest ([4]; 2-50 μM, within 24 hours, four human cancer cell lines) was “growth arrest” and the “Cdk4 protein kinase activity” value (Cdk4) was “inhibition”. For the same molecule, the cell cycle arrest (TSU-Pr1 cells) was “induces G1 arrest”, the “Cdk2 protein kinase activity” value (Cdk2; 50 μM, 24 hr) was “inhibition” and the Cdk2 activity (Cdk2; 2 or 10 μM, 2 or 4 hr) was “no significant changes”. For the same molecule, the “cross-resistance with vinblastine or doxorubicin (MDR phenotype)” value (human tumor cell lines; MCF7 vs. MCF/Adr and CEM vs. CEM/VBL100) was “no cross-resistance” and the IC50 (human tumor cell lines; a number of human tumor cancer lines, read-out: IC50 for growth inhibition of human tumor cancer lines) was 500 to 4500 nM.

From patent US6482851B1, “Synthesis of dysidiolide and uses thereof” (Sloan-Kettering Institute for Cancer Research, priority 1998, dated 2002)
